Measurements as given in patent US20240360411A1, “METHODS AND COMPOSITIONS FOR INDUCING FETAL HEMOGLOBIN, MODULATING ERYTHROID CELL LINEAGES, AND PERTURBING MEGAKARYOCYTE LINEAGES” (FLAGSHIP PIONEERING INNOVATIONS VI, LLC, priority 2021, published 2024).

Assays:
C57Bl/6J mice = test: Carboplatin induced thrombocytopenia model (CIT), CBC and bone marrow flow cytometry; type: in vivo, mouse
Source text: Chemotherapy induced thrombocytopenia (CIT) was a major disease burden in cancer patients undergoing chemotherapy. CIT increases the risk of bleeding resulting in delay of chemotherapy and/or reduction in relative dose intensity (RDI), which has a major impact in overall outcomes to cancer treatment. Currently, there were no approved treatments besides platelet transfusions in severe CIT cases. Thrombopoietin (TPO) mimetics, such romiplostim, were being investigated as a possible new treatment to address CIT. Based on the ability to modulate megakaryocyte progenitors in vitro and healthy animals, murine models that replicate CIT were developed (Table 19.) To this end, the following chemotherapeutic compounds known to induced myelosuppression and thrombocytopenia in mouse and humans were selected to develop CIT models:
Carboplatin a cisplatin analog commonly used in the clinic to treat a diverse type of malignant tumors. Carboplatin works by cross-linking to DNA resulting in DNA damage and decreased tumor burden. In addition, carboplatin also leads to bone marrow myelosuppression including transient thrombocytopenia in both human and mice.
Healthy C57Bl/6J mice were treated with a single dose of carboplatin via intraperitoneal injection (60 or 100 mg/kg) (FIG. 16A). Complete blood count (CBC), specifically changes in platelet number were measured using a blood analyzer (Heska HT5) at baseline Day 0 (baseline), Day 9, Day 16 and Day 21. In addition, bone marrowwas harvested at 24 hrs, 48 hrs, 9 days and 21 days post-carboplatin injection to characterize changes in the hematopoietic stem cells compartment, and changes in megakaryocyte compartment. […] Analysis of the bone marrow hematopoietic compartments was performed using flow cytometry as described in Example 14.

sickle cell patient = sickle cell patient treated with hydroxyurea; Mundee et al.; cited from earlier work
[1] = single intraperitoneal dose, 60 or 100 mg/kg, day post-injection

N.N.O=C([O-])C1(C(=O)[O-])CCC1.[Pt+2] [carboplatin]
bone marrow hematopoietic compartments (early Mkps, mature megakaryocytes) (C57Bl/6J mice; flow cytometry 24 hrs, 48 hrs, 9 days, 21 days post-carboplatin injection, FIG. 17A, 17B): dynamic loss and recovery of distinct populations
tolerability (C57Bl/6J mice; single intraperitoneal dose, 60 or 100 mg/kg): tolerated the treatment
blood platelets (change in platelet number) (C57Bl/6J mice; single intraperitoneal dose, 60 or 100 mg/kg, FIG. 16B): decrease of blood platelets in a dose dependent manner
full recovery of platelet number (C57Bl/6J mice; [1]): ≤ 21 days
nadir of blood platelets (C57Bl/6J mice; [1]): 9 days

NC(=O)NO [hydroxyurea]
mean % F+ cells (sickle cell patient): 54.1%±8.5%
mean % HbF (sickle cell patient): 15.8%±2.0%
